Source: US4808701A, “Cyclic peptides having appetite regulating activity” (Hoffmann-La Roche Inc., priority 1987, dated 1989)
Where a SMILES comes first, the peptide text is derived from it.

Legend:
[1] = biological target: T1, 3H-CCK-8-(SO3H) binding, bovine striatum homogenate (Bos taurus, UniProt P79266); assay: In vitro receptor binding assay, bovine striatum; conditions: 0.15 nM 3H-CCK-8-(SO3H), 30 min, 25° C.; read-out: Bovine Striatum IC50 (inhibition of specific 3H-CCK-8-(SO3H) binding)
T1 construct: tissue homogenate (striatum 0.26 mg protein in 2 ml final volume; pancreas 0.165 mg protein in 1 ml final volume); from tissue; host or cells: bovine striatum membrane homogenate
T1 sequence (P79266 1-454): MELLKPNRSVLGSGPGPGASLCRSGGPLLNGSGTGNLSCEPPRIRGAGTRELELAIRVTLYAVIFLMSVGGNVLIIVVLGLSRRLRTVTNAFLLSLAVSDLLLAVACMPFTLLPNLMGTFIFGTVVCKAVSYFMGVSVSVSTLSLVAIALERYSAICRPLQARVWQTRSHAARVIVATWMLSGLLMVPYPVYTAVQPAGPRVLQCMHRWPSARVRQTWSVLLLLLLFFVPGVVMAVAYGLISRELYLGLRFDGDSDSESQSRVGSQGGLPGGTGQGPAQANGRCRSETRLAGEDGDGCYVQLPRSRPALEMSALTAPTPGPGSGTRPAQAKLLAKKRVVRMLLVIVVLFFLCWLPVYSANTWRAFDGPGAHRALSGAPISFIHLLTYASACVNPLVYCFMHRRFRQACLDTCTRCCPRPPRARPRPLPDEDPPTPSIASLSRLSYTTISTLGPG
Description: (§1) The tissue was homogenized 2× for approx. 15 sec. at 0° C. using a Polytron homogenizer at a setting of 6. The tissue was isolated by centrifugation at 48,000×g for 10 min. at 0° C. […] Samples were incubated for 30 min. at 25° C. and the incubation terminated by pouring the mixture onto a pre-wet Whatman GF/B filter on a Sandbeck Vacuum Filtration Manifold. The incubation tubes were washed with 2×3 ml of ice-cold HEPES Buffer #2 and the wash filtered through the GF/B filter. The filter was air dried for 10 min. and then placed in a scintillation vial with 12 ml of Beckman HP/b Ready-Solv scintillation cocktail. The vials were shaken for 2-12 hours and then counted using a Beckman Model 7800 liquid scintillation spectrometer.

[2] = biological target: T2, 3H-CCK-8-(SO3H) binding, rat pancreas homogenate (Rattus norvegicus, UniProt P30551); assay: In vitro receptor binding assay, rat pancreas; conditions: 0.15 nM 3H-CCK-8-(SO3H), 30 min, 25° C.; read-out: Rat Pancreas IC50 (inhibition of specific 3H-CCK-8-(SO3H) binding)
T2 construct: tissue homogenate (striatum 0.26 mg protein in 2 ml final volume; pancreas 0.165 mg protein in 1 ml final volume); from tissue; host or cells: rat pancreas membrane homogenate
T2 sequence (P30551 1-444): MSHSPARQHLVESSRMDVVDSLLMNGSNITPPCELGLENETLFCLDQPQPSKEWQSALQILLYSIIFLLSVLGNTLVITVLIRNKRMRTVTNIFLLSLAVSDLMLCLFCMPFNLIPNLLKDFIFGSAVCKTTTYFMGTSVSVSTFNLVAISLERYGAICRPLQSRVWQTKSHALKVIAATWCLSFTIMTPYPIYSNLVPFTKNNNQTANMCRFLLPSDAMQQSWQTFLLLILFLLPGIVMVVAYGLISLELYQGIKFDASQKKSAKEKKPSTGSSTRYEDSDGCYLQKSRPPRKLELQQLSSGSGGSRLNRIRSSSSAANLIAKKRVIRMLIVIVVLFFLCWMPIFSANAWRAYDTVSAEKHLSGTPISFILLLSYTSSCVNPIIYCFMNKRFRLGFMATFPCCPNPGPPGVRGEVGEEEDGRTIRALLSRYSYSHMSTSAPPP
Description: as §1

in vitro = conditions: human, real gastrointestinal fluid or homogenate
Description: The degradation was monitored by analytical HPLC on a micro Bondapack (C18 column (0.4×30 cm) with a linear gradient of 10-40% of 0.01M NH4 Ac/CH3 CN in 40 min. with a flow rate of 2 ml/min and detection at 225 nm.

[3] = test system: food intake of meal-trained male Sprague-Dawley (CD) rats; assay: Two-meal feeding assay; type: in vivo, rat; conditions: dose 32 microgm/kg i.p. 15 min before first meal; mean ± SEM
Description: Male Sprague-Dawley (CD) rats weighing 180-200 grams (Charles River Breeding Laboratories) were acclimated to a 12 h light/dark cycle (6 a.m. to 6 p.m.) in a room kept at 22° C. They were subsequently fasted for two days, weighed, placed in individual cages, and a four-day period of meal training was begun. During this time the rats were given ground laboratory chow (Purina Lab Chow) in jars for one hour from 9:00 a.m. until 10:00 a.m., the jars were removed from 10:00 a.m. to 12:00 p.m., and placed back in the cages from 12:00 until 1:00 p.m. Under this `1-2-1` meal feeding regime, most rats learn to eat approximately as much per day during the two hours they have access to food as rats which have food ad libitum over the entire 24-hour day. On the fourth day, the rats were weighed again, and any which lost more than five grams body weight were excluded from the test. The animals were then distributed into experimental (n=5 to 6) and control groups (n=6-12), but not matched for body weight.
Peptides of the invention were suspended either in saline, if soluble, or in 1% gum arabic, if insoluble, at concentrations of 32 to 320 μg/ml/kg body weight and were administered intraperitonerally 15 min before the first meal on day 5 of meal feeding. […] Food intake was expressed as a mean and standard error of the mean as a percent of control values for the various groups. […]

[4] = test system: food intake in lean and obese men; conditions: infusions in lean and obese men; cited from earlier work

Row | metabolised at 0.25 h, 0.5 mg/mL (in vitro) [%] | SMILES | IC50 [1] [nM] | IC50 [2] [nM] | metabolised at 1 h, 0.5 mg/mL (in vitro) [%] | Food Intake 1st Meal [3] | Food Intake 2nd Meal [3] | Effect of infusion on food intake [4]
1 | – | CSCC[C@@H]1NC(=O)[C@H](Cc2c[nH]c3ccccc23)NC(=O)CNC(=O)[C@@H](NC(=O)[C@H](Cc2ccc(OS(=O)(=O)O)cc2)NC(C)=O)CCCCNC(=O)C[C@@H](C(=O)N(C)[C@@H](Cc2ccccc2)C(N)=O)NC1=O [Example 1] (HELM PEPTIDE1{[ac].[O=C([C@H](Cc1ccc(OS(=O)(=O)O)cc1)N[*:1])[*:2]].K.G.W.M.D.[meF].[am]}$PEPTIDE1,PEPTIDE1,3:R3-7:R3$$$V2.0) | 3000 | 1500 | 1.4 | – | – | –
2 | – | CSCC[C@@H]1NC(=O)[C@H](Cc2ccc(OS(=O)(=O)O)cc2)NC(=O)CC[C@@H](C(=O)N[C@H](C(=O)N(C)[C@@H](Cc2ccccc2)C(N)=O)[C@@H](C)OS(=O)(=O)O)NC(=O)[C@H](Cc2c[nH]c3ccccc23)NC(=O)CNC1=O [Example 3] (HELM PEPTIDE1{[O=C([C@H](Cc1ccc(OS(=O)(=O)O)cc1)N[*:1])[*:2]].M.G.W.E.[C[C@@H](OS(=O)(=O)O)[C@H](N[*:1])C(=O)[*:2]].[meF].[am]}$PEPTIDE1,PEPTIDE1,1:R1-5:R3$$$V2.0) | > 10000 | > 10000 | – | – | – | –
3 | – | CSCC[C@@H]1NC(=O)[C@H](Cc2c[nH]c3ccccc23)NC(=O)CNC(=O)[C@@H](NC(=O)[C@H](Cc2ccc(OS(=O)(=O)O)cc2)NC(C)=O)CCCNC(=O)C[C@@H](C(=O)N(C)[C@@H](Cc2ccccc2)C(N)=O)NC1=O (HELM PEPTIDE1{[ac].[O=C([C@H](Cc1ccc(OS(=O)(=O)O)cc1)N[*:1])[*:2]].[Orn].G.W.M.D.[meF].[am]}$PEPTIDE1,PEPTIDE1,3:R3-7:R3$$$V2.0) | 52000 | 13000 | – | – | – | –
4 | – | CCCC[C@@H]1NC(=O)[C@H](Cc2c[nH]c3ccccc23)NC(=O)CNC(=O)[C@@H](NC(=O)[C@H](Cc2ccc(OS(=O)(=O)O)cc2)NC(C)=O)CCCCNC(=O)C[C@@H](C(=O)N(C)[C@@H](Cc2ccccc2)C(N)=O)NC1=O (HELM PEPTIDE1{[ac].[O=C([C@H](Cc1ccc(OS(=O)(=O)O)cc1)N[*:1])[*:2]].K.G.W.[Nle].D.[meF].[am]}$PEPTIDE1,PEPTIDE1,3:R3-7:R3$$$V2.0) | > 1000 | 6600 | – | – | – | –
5 | 90 | CSCC[C@H](NC(=O)[C@H](Cc1ccc(OS(=O)(=O)O)cc1)NC(=O)[C@@H](N)CC(=O)O)C(=O)NCC(=O)N[C@@H](Cc1c[nH]c2ccccc12)C(=O)N[C@@H](CCSC)C(=O)N[C@@H](CC(=O)O)C(=O)N[C@@H](Cc1ccccc1)C(N)=O [CCK-8, H-Asp-Tyr-(SO3 H)-Met-Gly-Trp-Met-Asp-Phe-NH2] | 1 to 4.6 | 1 to 3.2 | 100 | 27 ± 17 % of Control | 149 ± 6 % of Control | decrease food intake
6 | – | CSCC[C@@H]1NC(=O)[C@H](Cc2c[nH]c3ccccc23)NC(=O)CNC(=O)[C@@H](NC(=O)[C@H](Cc2ccc(OS(=O)(=O)O)cc2)NC(C)=O)CCCCNC(=O)C[C@@H](C(=O)N[C@@H](Cc2ccccc2)C(N)=O)NC1=O (HELM PEPTIDE1{[ac].[O=C([C@H](Cc1ccc(OS(=O)(=O)O)cc1)N[*:1])[*:2]].K.G.W.M.D.F.[am]}$PEPTIDE1,PEPTIDE1,3:R3-7:R3$$$V2.0) | > 1000 | 45 | – | – | – | –
